target: T1, human mGluR2 (Homo sapiens, UniProt Q14416); assay: [35S]-GTPγS binding assay of mGluR2 receptor activation (allosteric activator activity) with CHO cell membranes; assay type: biochemical; conditions: membranes from CHO cells stably expressing human mGluR2; in presence of 1 μM glutamate
T1 construct: expressed in transfected cells; host or cells: CHO cells, stably transfected; membrane preparation
Method: A [^35S]-GTPγS binding assay was used to functionally assay mGluR2 receptor activation. The allosteric activator activity of compounds at the human mGluR2 receptor were measured using a [^35S]-GTPγS binding assay with membranes prepared from CHO cells which stably express the human mGluR2. The assay is based upon the principle that agonists bind to G-protein coupled receptors to stimulate GDP-GTP exchange at the G-protein. Since [^35S]-GTPγS is a non-hydrolyzable GTP analog, it can be used to provide an index of GDP-GTP exchange and, thus, receptor activation. The GTPγS binding assay therefore provides a quantitative measure of receptor activation.
Membranes were prepared from CHO cells stably transfected with human mGluR2. Membranes (30 μg protein) were incubated with test compound (3 nM to 300 μM) for 15 minutes at room temperature prior to the addition of 1 μM glutamate, and incubated for 30 min at 30° C. in 500 μl assay buffer (20 mM HEPES, 100 mM NaCl, 10 mM MgCl2), containing 30 μM GDP and 0.1 nM [^35S]-GTPγS (1250 Ci/mmol). Reactions were carried out in triplicate in 2 ml polypropylene 96-well plates. Reactions were terminated by vacuum filtration using a Packard 96-well harvester and Unifilter-96, GF/B filter microplates. The filter plates were washed 4×1.5 ml with ice-cold wash buffer (10 mM sodium phosphate buffer, pH 7.4). The filter plates were dried and 35 μl of scintillation fluid (Microscint 20) was added to each well. The amount of radioactivity bound was determined by counting plates on the Packard TopCount. Data was analyzed using GraphPad Prism, and EC50 and Emax values (relative to the maximum glutamate effect) were calculated using non-linear regression.

T1 sequence (Q14416 19-872): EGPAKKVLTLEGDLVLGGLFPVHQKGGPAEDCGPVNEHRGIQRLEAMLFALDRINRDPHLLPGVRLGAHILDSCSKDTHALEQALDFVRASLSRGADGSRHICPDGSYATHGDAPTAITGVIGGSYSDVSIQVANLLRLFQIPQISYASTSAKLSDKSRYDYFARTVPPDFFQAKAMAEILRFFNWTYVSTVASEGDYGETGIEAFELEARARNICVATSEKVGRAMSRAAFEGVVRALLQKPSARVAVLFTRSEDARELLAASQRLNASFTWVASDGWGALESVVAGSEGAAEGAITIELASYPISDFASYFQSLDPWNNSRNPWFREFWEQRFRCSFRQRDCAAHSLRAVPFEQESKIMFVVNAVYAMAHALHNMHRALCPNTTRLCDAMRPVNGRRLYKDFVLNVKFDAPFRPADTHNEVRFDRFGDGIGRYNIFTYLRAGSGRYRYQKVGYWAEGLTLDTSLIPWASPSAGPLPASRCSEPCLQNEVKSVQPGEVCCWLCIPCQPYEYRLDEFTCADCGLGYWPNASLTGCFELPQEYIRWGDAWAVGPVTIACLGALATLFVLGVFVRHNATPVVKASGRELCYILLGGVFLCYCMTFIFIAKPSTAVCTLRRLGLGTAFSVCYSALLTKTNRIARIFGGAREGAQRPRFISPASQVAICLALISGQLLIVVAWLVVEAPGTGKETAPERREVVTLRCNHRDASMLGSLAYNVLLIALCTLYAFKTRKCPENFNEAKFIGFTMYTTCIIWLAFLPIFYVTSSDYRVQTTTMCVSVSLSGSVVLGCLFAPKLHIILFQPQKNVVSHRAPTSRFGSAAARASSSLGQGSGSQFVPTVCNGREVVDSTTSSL

Row | EC50 | SMILES
1 | 0.12 µM | O=C(NC1CCN(Cc2ccccc2)C1)c1ccc(-c2ccc(CN3C[C@@H](c4ccccc4)OC3=O)cc2)cc1 (stereo in doubt) [Example 10.29, 4′-(2-Oxo-5-(R)-phenyl-oxazolidin-3-ylmethyl)-biphenyl-4-carboxylicacid (1-benzyl-pyrrolidin-3-(S)-yl)-amide]
2 | 1.96 µM | O=C1O[C@H](c2ccccc2)CN1Cc1ccc(OC(F)(F)F)cc1 [Example 3.1, 5-(R)-Phenyl-3-(4-trifluoromethoxy-benzyl)-oxazolidin-2-one]
3 | 0.39 µM | O=C1OC(c2ccc(F)cc2)CN1Cc1ccc(Oc2ccccc2)cc1 (centres unmarked) [Example 13.5, 5-(4-Fluoro-phenyl)-3-(4-phenoxy-benzyl)-oxazolidin-2-one]
4 | 0.91 µM | COc1cncc(-c2ccc(C3CN(Cc4ccc(OC(F)(F)F)cc4)C(=O)O3)cc2)c1 (centres unmarked) [Example 17.2, 5-[4-(5-Methoxy-pyridin-3-yl)-phenyl]-3-(4-trifluoromethoxy-benzyl)-oxa-zolidin-2-one]
5 | 3.1 µM | CN(C)CCNC(=O)c1cccc(-c2ccc(C3CN(Cc4ccc(Cl)cc4)C(=O)O3)cc2)c1 (centres unmarked) [Example 17.3, 4′-[3-(4-Chloro-benzyl)-2-oxo-oxa-zolidin-5-yl]-biphenyl-3-carboxylic acid(2-dimethylamino-ethyl)-amide]

— patent US20090012089A1, “Oxazolidinone Compounds and Their Use as Metabotropic Glutamate Receptor Potentiators” (ASTRAZENECA AB, priority 2005, published 2009)
